Measurements from patent US20240294531A1, “COVALENT HETEROCYCLES AND USES THEREOF” (Kumquat Biosciences Inc., priority 2022, published 2024).

Experiments:
[1] = Intrinsic reactivity assay; assay type: physicochemical; conditions: pH 7.4, 37° C., suitably protected Cys-OMe
Excerpt: Understanding of the intrinsic reactivity of electrophilic warheads with nucleophilic molecules is an important parameter influencing the stability of a compound in biological matrices. Lower intrinsic reactivity also mitigates the risk of covalent off-target reactivity. A common target residue for covalent drugs is cysteine, an amino acid containing a nucleophilic thiol side chain. The assay described here measures the rate of a compound forming a covalent bond with Boc-protected cysteine methyl ester or cysteine methyl ester that can be used as a surrogate for cysteines found on proteins.
Test compounds are prepared as 10 mM stock solutions in DMSO (Fisher cat #BP231-100). Compounds with molecular weight differing more than 3 Dalton are pooled and diluted to 5 μM in 100 mM potassium phosphate buffer, pH 7.4, containing 50 mM Boc-protected cysteine methyl ester (Combi-Blocks cat #QH-3424). Compounds incubated without Boc-protected cysteine methyl ester serve as controls. The reactions are incubated at 37° C., and reaction aliquots at different time intervals are sampled from the reaction and quenched with formic acid for subsequent LC-MS/MS analysis.
The LC-MS/MS analysis is done using a LC-40D×3 pump and SIL-40C×3 autosampler (Shimadzu) coupled to a QTRAP 6500+ (Sciex). Compounds are separated on a XBridge Premier BEH column (Waters). The sample run time is about 4 minutes per injection. The normalized peak area for each compound is extracted from the mass spectrometry raw files, and the data for each compound are plotted against time in Prism version 9.4 (GraphPad). Nonlinear regression using one-phase decay is used to estimate the rate of covalent bond formation with Boc-protected cysteine methyl ester or cysteine methyl ester and parent compound half-life (t½).

BTK wildtype protein [2] = molecular target: T1, BTK wildtype protein (Homo sapiens (Human), UniProt Q06187); assay: BTK wildtype HTRF displacement assay; assay type: binding; conditions: 1-hour incubation; read-out: BTK (wt) IC50
Outline: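 Tracer-displacement HTRF format: compound and tracer 239 compete at the BTK active site, detected via anti-GST-Tb on GST-tagged full-length enzyme. One-hour room-temperature incubation; compounds dosed at six four-fold steps down from 5 μM. Percent inhibition versus DMSO gives IC50 by constrained four-parameter logistic fit.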
Target sequence in this assay (Q06187 2-659): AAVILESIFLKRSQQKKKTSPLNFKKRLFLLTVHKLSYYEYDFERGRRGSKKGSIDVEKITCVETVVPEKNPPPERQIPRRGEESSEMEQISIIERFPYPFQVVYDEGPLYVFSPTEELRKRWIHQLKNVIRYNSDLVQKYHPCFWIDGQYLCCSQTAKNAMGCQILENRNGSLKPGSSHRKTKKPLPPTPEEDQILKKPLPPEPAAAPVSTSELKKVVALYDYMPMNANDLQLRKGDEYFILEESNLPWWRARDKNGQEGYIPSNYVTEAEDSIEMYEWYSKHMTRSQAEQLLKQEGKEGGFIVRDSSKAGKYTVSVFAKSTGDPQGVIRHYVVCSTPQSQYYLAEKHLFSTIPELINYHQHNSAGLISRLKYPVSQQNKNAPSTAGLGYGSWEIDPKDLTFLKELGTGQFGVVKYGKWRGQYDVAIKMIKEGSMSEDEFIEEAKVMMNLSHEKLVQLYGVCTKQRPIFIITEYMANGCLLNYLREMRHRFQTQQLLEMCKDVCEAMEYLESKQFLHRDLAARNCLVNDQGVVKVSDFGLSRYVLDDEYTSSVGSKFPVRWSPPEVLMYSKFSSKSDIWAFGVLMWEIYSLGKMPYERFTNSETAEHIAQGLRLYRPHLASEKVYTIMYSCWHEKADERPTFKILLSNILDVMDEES

BTK C481S protein = BTK C481S protein (Homo sapiens (Human), UniProt Q06187, C481S); assay: BTK C481S HTRF displacement assay; assay type: binding; conditions: 1-hour incubation
BTK C481S protein, sequence (Q06187 2-659 C481S): as the sequence (Q06187 2-659) above, with C480S counted along it
Outline: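 Tracer displacement read by HTRF after 1 hour at room temperature: GST-BTK C481S 2-659, 50 nM tracer 239 (Kd 54 nM), anti-GST antibody, compound in six four-fold doses from 5 μM. Percent inhibition versus DMSO fitted (bottom 0, top 100) for IC50, converted to KI via Cheng-Prusoff.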

MGLL = MGLL (Homo sapiens (Human), UniProt Q99685, K36A/L169S/L176S); assay: MGLL compound modification assay (intact protein LC-MS); assay type: binding; conditions: at 4 hours; compound concentration of 3 μM
MGLL, sequence (Q99685 whole entry K36A/L169S/L176S): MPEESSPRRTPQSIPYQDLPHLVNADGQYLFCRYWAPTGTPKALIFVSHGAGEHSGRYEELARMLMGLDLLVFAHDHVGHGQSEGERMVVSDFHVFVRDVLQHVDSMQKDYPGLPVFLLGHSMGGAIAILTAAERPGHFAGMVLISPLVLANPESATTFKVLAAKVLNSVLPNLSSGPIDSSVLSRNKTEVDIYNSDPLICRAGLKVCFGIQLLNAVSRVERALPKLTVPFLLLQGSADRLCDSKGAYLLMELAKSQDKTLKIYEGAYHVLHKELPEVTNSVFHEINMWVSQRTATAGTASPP
Method: Test compounds were prepared as 10 mM stock solutions in DMSO (Fisher cat #BP231-100). Human recombinant MGLL protein 1-303 containing K36A, L169S, L176S amino acid substitutions were produced at in house. On the day of the assay, MGLL protein was diluted to 2 μM in assay buffer (20 mM Hepes, pH 7.5, 150 mM NaCl, 1 mM MgCl2, 1 mM DTT). For testing MGLL modification, compounds were diluted to 50× final test concentration in DMSO in 96-well storage plates. […] of the diluted 50× compounds were added to appropriate wells in the PCR plate (Fisher cat #AB-0800). 49 μL of the stock protein solution was added to each well of the 96-well PCR plate to form a mixture. The plate was sealed well with aluminum plate seal and stored in a drawer at room temperature. […]
The extent of covalent modification of MGLL proteins was determined by liquid chromatography electrospray mass spectrometry analysis of the intact proteins using a Thermo Q-Exactive Plus mass spectrometer. […] The recorded protein mass spectrum was deconvoluted from the raw data file using Protein Deconvolution v4.0 (Thermo). […]
Certain compounds disclosed herein are expected to covalently modify MGLL protein when assessed using the assay described above by at least 1%, such as by at least 5%, 10%, 20%, 30%, 40%, or at least 50%.

BTK wildtype protein [3] = molecular target: T1, BTK wildtype protein; assay: Kinact/KI determination for BTK protein inhibitors (Kobs); assay type: binding
Method: Test compounds were prepared as 10 mM stock solutions in DMSO (Fisher cat #BP231-100). Human recombinant BTK wildtype protein 393-659 or BTK C481S protein 393-659 was produced in house or purchased from Saromics Biostructures AB (Lund, Sweden). BTK protein was diluted to 1 μM in buffer (20 mM Hepes, pH 7.5, 150 mM NaCl, 1 mM MgCl2, 1 mM DTT). For testing BTK modification, compounds were diluted to 50× final test concentration in DMSO in 96-well storage plates. 1 μL of the diluted 50× compounds were added to appropriate wells in the PCR plate (Fisher cat #AB-0800). Increasing concentrations of compounds were added to separate wells, resulting in final assay compound concentrations of 3 μM, 10 μM, 30 μM and 100 μM. 49 μL of the stock protein solution was added to each well of the 96-well PCR plate. Reactions were mixed carefully. The plate was sealed well with aluminum plate seal and stored in a drawer at room temperature. After different incubation times, the reactions were quenched by adding 5 μL of 2% formic acid (Fisher cat #A117-50) in MilliQ H2O to each well followed by mixing with a pipette. The plate was then resealed with aluminum seal and stored until mass spectrometry analysis.
The extent of covalent modification of BTK proteins was determined by liquid chromatography electrospray mass spectrometry analysis of the intact proteins using a Thermo Q-Exactive Plus mass spectrometer. 20 μL of sample was injected onto a bioZen 3.6 μm Intact C4 column (Phenomenex cat #00B-4767-AN) placed in a column oven set to 40° C. and separated using a LC gradient from 20% to 60% solvent B. Solvent A was 0.1% formic acid and solvent B was 0.1% formic acid in acetonitrile. HESI source settings were set to 40, 5 and 1 for the sheath, auxiliary and sweep gas flow, respectively. The spray voltage was 4 kV, and the capillary temperature was 320° C. S-lens RF level was 50 and auxiliary gas heater temperature was set to 200° C. The mass spectrometry was acquired using a scan range from 650 to 1750 m/z using positive polarity at a mass resolution of 70,000, AGC target of 1e6 ions and maximum injection time of 250 ms. The recorded protein mass spectrum was deconvoluted from the raw data file using Protein Deconvolution v4.0 (Thermo). The protein mass, adduct masses and their corresponding peak intensities were exported to Excel (Microsoft). The peak intensities for the unmodified and modified protein were used to calculate the percent covalent modification of the BTK protein based on the following equation: % BTK protein modification=((BTK−compound)/(BTK)+(BTK−Compound))*100.
The Kinact/KI is a rate constant describing the efficiency of covalent bond formation resulting from the potency (KI) of the first reversible binding event and the maximum potential rate (Kinact) of inactivation. The percent […] protein modification was plotted as a function of time using Prism version 9.4.1 (GraphPad), and the observed rate of modification (Kobs), a first-order rate constant with units of inverse time, was estimated using nonlinear regression at each compound concentration. […] If Kobs is increasing with compound concentration, KI is higher than 3 μM. Kinact/KI can be estimated by plotting Kobs values against each compound concentration used in separate reactions. The Kobs values are fitted to determine Kinact and KI using the following equation, Kobs=(Kinact×[compound conc])/(KI+[compound conc]).
Target sequence in this assay (Q06187 393-659): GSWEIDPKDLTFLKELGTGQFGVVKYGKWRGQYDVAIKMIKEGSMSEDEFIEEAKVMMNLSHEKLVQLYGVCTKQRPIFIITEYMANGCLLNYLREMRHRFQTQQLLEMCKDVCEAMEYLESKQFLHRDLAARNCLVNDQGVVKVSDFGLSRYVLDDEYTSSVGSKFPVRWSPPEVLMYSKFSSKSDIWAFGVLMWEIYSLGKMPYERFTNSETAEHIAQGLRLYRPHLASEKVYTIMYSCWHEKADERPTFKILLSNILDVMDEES

Compound | K (min^−1), intrinsic rate constant [1] | IC50 (BTK wildtype protein [2]) | IC50 (BTK C481S protein) | % MGLL protein modification (MGLL) | BTK (wt) Kobs (BTK wildtype protein [3])
CC1CCCCN1C(=O)n1cncn1 (stereo not drawn) | <0.0005 min⁻¹ |  |  |  | 
C=CC(=O)N1CCCCC1C (stereo not drawn) | 0.0029 min⁻¹ |  |  |  | 
C=CC(=O)N(CC)C1CC1 | 0.0159 min⁻¹ |  |  |  | 
CN(C(=O)n1cncn1)C1CCC(n2nc(-c3ccc(Oc4ccccc4)cc3)c3c(N)ncnc32)CC1 (stereo not drawn) [Compound 133, N-(4-(4-amino-3-(4-phenoxyphenyl)-1H-pyrazolo[3,4-d]pyrimidin-1-yl)cyclohexyl)-N-methyl-1H-1,2,4-triazole-1-carboxamide] |  | ≤ 1000 nM | ≤ 1000 nM | over 50% | 
CCN(CC)C(=O)n1cncn1 | <0.0005 min⁻¹ |  |  |  | 
C=CC(=O)N(CC)CC | 0.0012 min⁻¹ |  |  |  | 
CCN(C(=O)n1cncn1)C1CC1 | <0.0005 min⁻¹ |  |  |  | 
CN(C(=O)n1cncn1)C1CCCC(C2CCNc3c(C(N)=O)c(-c4ccc(Oc5ccccc5)cc4)nn32)C1 (stereo not drawn) [Compound 134, 7-(3-(N-methyl-1H-1,2,4-triazole-1-carboxamido)cyclohexyl)-2-(4-phenoxyphenyl)-4,5,6,7-tetrahydropyrazolo[1,5-a]pyrimidine-3-carboxamide] |  | ≤ 1000 nM | ≤ 1000 nM |  | 132, 134, 136, 137, 138, 140, 150, 152, 153, 154, 155, M^−1 · s^−1
COc1ccc(F)cc1C(=O)NCc1ccc(-c2nn(C(C)C(C)N(C)C(=O)n3cnnc3)c(N)c2C(N)=O)cc1 (stereo not drawn) [Compound 155, N-(3-(5-amino-4-carbamoyl-3-(4-((5-fluoro-2-methoxybenzamido)methyl)phenyl)-1H-pyrazol-1-yl)butan-2-yl)-N-methyl-4H-1,2,4-triazole-4-carboxamide] |  | > 1000 nM | ≤ 1000 nM |  | 132, 134, 136, 137, 138, 140, 150, 152, 153, 154, 155, M^−1 · s^−1
CN(CCC1CNc2c(C(N)=O)c(-c3ccc(Oc4ccccc4)cc3)nn2C1)C(=O)n1cncn1 (stereo not drawn) [Compound 265, 6-(2-(N-methyl-1H-1,2,4-triazole-1-carboxamido)ethyl)-2-(4-phenoxy-phenyl)-4,5,6,7-tetrahydro-pyrazolo[1,5-a]pyrimidine-3-carboxamide] |  | > 1000 nM | ≤ 1000 nM |  | 248, 249, 250, 253, 254, 256, 259, 260, 261, 264, 265, M^−1 · s^−1
COc1ccc(F)cc1C(=O)NCc1ccc(-c2nn(C(C)C(C)N(C)C(=O)n3cncn3)c3ncnc(N)c23)cc1 (stereo not drawn) [Compound 250, N-(3-(4-amino-3-(4-((5-fluoro-2-methoxybenzamido)methyl)phenyl)-1H-pyrazolo[3,4-d]pyrimidin-1-yl)butan-2-yl)-N-methyl-1H-1,2,4-triazole-1-carboxamide] |  | ≤ 1000 nM | ≤ 1000 nM |  | 248, 249, 250, 253, 254, 256, 259, 260, 261, 264, 265, M^−1 · s^−1
COCC(CN(C)C(=O)n1cncn1)n1nc(-c2ccc(CNC(=O)c3cc(F)ccc3OC)cc2)c2c(N)ncnc21 (stereo not drawn) [Compound 261, N-(2-(4-amino-3-(4-((5-fluoro-2-methoxybenzamido)methyl)phenyl)-1H-pyrazolo[3,4-d]pyrimidin-1-yl)-3-methoxypropyl)-N-methyl-1H-1,2,4-triazole-1-carboxamide] |  | > 1000 nM | > 1000 nM |  | 248, 249, 250, 253, 254, 256, 259, 260, 261, 264, 265, M^−1 · s^−1
